According to ChEMBL document CHEMBL2029344, “A new class of prolylcarboxypeptidase inhibitors, part 2: the aminocyclopentanes” (Bioorg Med Chem Lett, 2012):

Experiments:
[1] = molecular target: Mus musculus; experiment: Ex-vivo inhibition of po dosed mouse PrCP by FRET analysis in presence of heat inactivated 100% plasma; assay type: functional, organism-based
[2] = molecular target: Mus musculus; experiment: Ex-vivo inhibition of po dosed mouse PrCP by FRET analysis in presence of heat inactivated 25% plasma; assay type: functional, organism-based
[3] = Percentage unbound in 10% mouse plasma; assay type: ADME, cell-free
[4] = Percentage unbound in 10% human plasma; assay type: ADME, cell-free
[5] = molecular target: Mus musculus; experiment: Ex-vivo inhibition of po dosed mouse PrCP by FRET analysis in absence of plasma; assay type: functional, organism-based
[6] = Stability in mouse liver microsomes after 30 mins by LC/MS analysis; assay type: ADME, Microsome; settings: read-out: Stability
[7] = molecular target: T1, Lysosomal Pro-X carboxypeptidase (Mus musculus, UniProt Q7TMR0); experiment: Inhibition of mouse PrCP
T1 sequence (Q7TMR0 whole entry): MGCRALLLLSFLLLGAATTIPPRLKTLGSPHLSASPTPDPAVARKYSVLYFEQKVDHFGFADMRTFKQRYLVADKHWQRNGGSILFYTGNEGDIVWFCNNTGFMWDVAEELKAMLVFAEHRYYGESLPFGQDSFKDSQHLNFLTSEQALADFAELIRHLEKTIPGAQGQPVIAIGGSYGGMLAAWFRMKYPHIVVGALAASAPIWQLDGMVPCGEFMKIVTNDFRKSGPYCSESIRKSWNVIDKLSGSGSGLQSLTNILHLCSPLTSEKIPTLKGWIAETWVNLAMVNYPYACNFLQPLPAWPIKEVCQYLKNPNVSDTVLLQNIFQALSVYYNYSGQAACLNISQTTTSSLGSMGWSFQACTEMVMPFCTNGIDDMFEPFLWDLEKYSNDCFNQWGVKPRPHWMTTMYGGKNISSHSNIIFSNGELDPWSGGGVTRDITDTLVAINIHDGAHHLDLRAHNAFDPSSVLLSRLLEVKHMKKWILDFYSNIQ

[8] = Stability in human liver microsomes after 30 mins by LC/MS analysis; assay type: ADME, Microsome; settings: read-out: Stability
[9] = Ratio of drug uptake in brain to plasma of C57 mouse at 30 mg/kg, po after 20 hrs by LC/MS analysis; assay type: ADME, organism-based; parameters: dose 30 mg/kg, route oral; settings: read-out: BPR
[10] = tested on: Mus musculus; experiment: Dose normalized AUC in mouse at 1 mg/kg, iv and 30 mg/kg, po; assay type: ADME, organism-based; settings: in vivo
[11] = Volume of distribution in mouse at 1 mg/kg, iv and 30 mg/kg, po; assay type: ADME, organism-based; settings: in vivo
[12] = Clearance in mouse at 1 mg/kg, iv and 30 mg/kg, po; assay type: ADME, organism-based; settings: in vivo
[13] = Oral bioavailability in mouse at 30 mg/kg; assay type: ADME, organism-based; settings: in vivo
[14] = tested on: Mus musculus; experiment: Ex-vivo inhibition of PrCP in heat inactivated 100% plasma of C57 mouse assessed as target engagement calculated as [cmpd]plasma/([cmpd]plasma + Ki (heat inactivated plasma))x100 at 30 mg/kg, po after 20 hrs by FRET analysis; assay type: functional; parameters: scale not given: the % may be the effect or the level left
[15] = tested on: Mus musculus; experiment: Ex-vivo inhibition of PrCP in heat inactivated 100% plasma of C57 mouse assessed as target engagement at 30 mg/kg, po after 20 hrs by FRET analysis; assay type: functional; parameters: scale not given: the % may be the effect or the level left
[16] = Drug uptake in C57 mouse brain at 10 mg/kg, po after 20 hrs by LC/MS analysis; assay type: ADME, organism-based; parameters: dose 10 mg/kg, route oral; settings: read-out: Drug uptake
[17] = Drug uptake in C57 mouse plasma at 10 mg/kg, po after 20 hrs by LC/MS analysis; assay type: ADME, organism-based; parameters: dose 10 mg/kg, route oral
[18] = tested on: Mus musculus; experiment: Ex-vivo inhibition of PrCP in heat inactivated 100% plasma of C57 mouse assessed as target engagement calculated as [cmpd]plasma/([cmpd]plasma + Ki (heat inactivated plasma))x100 at 10 mg/kg, po after 20 hrs by FRET analysis; assay type: functional; parameters: scale not given: the % may be the effect or the level left
[19] = Ratio of drug uptake in brain to plasma of C57 mouse at 10 mg/kg, po after 20 hrs by LC/MS analysis; assay type: ADME, organism-based; parameters: dose 10 mg/kg, route oral; settings: read-out: BPR
[20] = Drug uptake in C57 mouse brain at 30 mg/kg, po after 20 hrs by LC/MS analysis; assay type: ADME, organism-based; parameters: dose 30 mg/kg, route oral; settings: read-out: Drug uptake
[21] = Half life in mouse at 1 mg/kg, iv and 30 mg/kg, po; assay type: ADME, organism-based; settings: in vivo
[22] = tested on: Mus musculus; experiment: Ex-vivo inhibition of PrCP in heat inactivated 100% plasma of C57 mouse assessed as target engagement at 10 mg/kg, po after 20 hrs by FRET analysis; assay type: functional; parameters: scale not given: the % may be the effect or the level left
[23] = Drug uptake in C57 mouse plasma at 30 mg/kg, po after 20 hrs by LC/MS analysis; assay type: ADME, organism-based; parameters: dose 30 mg/kg, route oral
[24] = Apparent permeability across pig LLC-PK1 cells at 1 uM; assay type: ADME, cell-based, Sus scrofa

| Compound | Ki [1] [nM] | Ki [2] [nM] | fraction unbound [3] | fraction unbound [4] | Ki [5] [nM] | remaining at 0.5 h [6] [%] | IC50 [7] [nM] | remaining at 0.5 h [8] [%] | AUC/dose [10] [µM·kg·h/mg] | Vd [11] [L/kg] | clearance [12] [mL/min/kg] | bioavailability [13] [%] | other results |
| --- | --- | --- | --- | --- | --- | --- | --- | --- | --- | --- | --- | --- | --- |
| Cc1nc(C2CCN(C(=O)[C@@H]3C[C@@](C)(N(C)C)C[C@H]3c3ccc(F)cc3F)CC2)n(-c2ccc(F)c(Cl)c2)n1 | 1.1 | 1.1 | 0.22 | 0.32 | 1.1 |  |  |  |  |  |  |  |  |
| Cc1nc(C2CCN(C(=O)[C@@H]3C[C@@](C)(N(C)C)C[C@H]3c3ccc(F)cc3F)CC2)n(-c2ccc(Cl)c(C)c2)n1 | 16.6 | 6.3 | 0.22 | 0.05 | 2.9 | 47 | 2.5 | 27 |  |  |  |  |  |
| Cc1nc(C2CCN(C(=O)[C@@H]3CN(C(C)(C)C)C[C@H]3c3ccc(F)cc3F)CC2)n(-c2ccc(Cl)c(C)c2)n1 |  |  |  |  |  |  |  |  | 0.05 | 17 | 128 | 20 |  |
| C[C@@]1(N)C[C@@H](C(=O)N2CCC(c3ncnn3-c3ccc(F)c(Cl)c3)CC2)[C@H](c2ccc(F)cc2F)C1 |  |  | 0.15 | 0.21 |  |  | 16 |  |  |  |  |  |  |

Continued, in another order:

| Ki [1] [nM] | Ki [2] [nM] | fraction unbound [3] | fraction unbound [4] | Ki [5] [nM] | remaining at 0.5 h [6] [%] | IC50 [7] [nM] | remaining at 0.5 h [8] [%] | AUC/dose [10] [µM·kg·h/mg] | Vd [11] [L/kg] | clearance [12] [mL/min/kg] | bioavailability [13] [%] | Compound | other results |
| --- | --- | --- | --- | --- | --- | --- | --- | --- | --- | --- | --- | --- | --- |
| 5.2 | 2.1 | 0.02 | 0.071 | 1 | 78 | 0.9 | 39 |  |  |  |  | Cc1cc(C2CCN(C(=O)[C@@H]3C[C@@](C)(N)C[C@H]3c3ccc(F)cc3F)CC2)n(-c2cc(Cl)ccc2Cl)n1 |  |
| 66.1 | 24.7 | 0.043 | 0.069 | 10.9 |  |  |  |  |  |  |  | Cc1cc(C2CCN(C(=O)[C@@H]3C[C@](C)(N)C[C@H]3c3ccc(F)cc3F)CC2)n(-c2ccc(F)c(Cl)c2)n1 |  |
| 2.1 | 0.9 | 0.013 | 0.087 | 0.5 | 33.6 | 0.4 | 12 |  |  |  |  | Cc1cc(C2CCN(C(=O)[C@@H]3C[C@@](C)(N(C)C)C[C@H]3c3ccc(F)cc3F)CC2)n(-c2cc(Cl)ccc2Cl)n1 |  |
|  |  |  |  |  |  |  |  | 0.19 | 13 | 48 | 31 | Cc1cc(C2CCN(C(=O)[C@@H]3CN(C(C)(C)C)C[C@H]3c3ccc(F)cc3F)CC2)n(-c2cc(Cl)ccc2Cl)n1 | Kp at 20 h [9]: 1.35; Activity [14]: 99.8%; Activity [15]: 97.7% |
| 10.1 | 3.7 | 0.036 | 0.043 | 1.6 | 90 |  | 60 | 1 | 6.2 | 18 | 57 | Cc1cc(C2CCN(C(=O)[C@@H]3C[C@@](C)(N)C[C@H]3c3ccc(F)cc3F)CC2)n(-c2ccc(F)c(Cl)c2)n1 | concentration at 20 h [16]: 39 nM; concentration at 20 h [17]: 246 nM; Activity [18]: 96.1%; Kp at 20 h [9]: 0.17; Kp at 20 h [19]: 0.18; concentration at 20 h [20]: 363 nM; half-life [21]: 4.9 h; Activity [22]: 62.8%; Activity [14]: 99.6%; concentration at 20 h [23]: 2820 nM; Papp at 1 µM [24]: 24 ×10⁻⁶ cm/s; Activity [15]: >=100% |
|  |  |  |  |  | 93 | 47.8 | 91 |  |  |  |  | Cc1nc(C2CCN(C(=O)[C@@H]3C[C@](C)(N)C[C@H]3c3ccc(F)cc3F)CC2)n(-c2ccc(F)c(Cl)c2)n1 |  |
